# Laboratory results published in ChEMBL document CHEMBL1201862, “PubChem BioAssay data set” (2004).
# Calls of active or inactive are those of the source.
# Assays:
# [1] = intracellular Trypanosoma cruzi inhibitors in host cells – cell-based, plate reader, cherry-pick samples, set 3, dose response (AID 651818); type: functional;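 note: compounds incubated with infected cells for about four days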
# Cytochrome P450 2C19 = Cytochrome P450 2C19 (Homo sapiens, UniProt P33261); assay: Cytochrome panel assay with activity outcomes. Panel member name: p450-cyp2c19 Compounds with AC50 equal or less than 10 uM are considered active; type: functional; details: read-out: AC50
# Chain of Cytochrome P450 2C19 (P33261 whole entry): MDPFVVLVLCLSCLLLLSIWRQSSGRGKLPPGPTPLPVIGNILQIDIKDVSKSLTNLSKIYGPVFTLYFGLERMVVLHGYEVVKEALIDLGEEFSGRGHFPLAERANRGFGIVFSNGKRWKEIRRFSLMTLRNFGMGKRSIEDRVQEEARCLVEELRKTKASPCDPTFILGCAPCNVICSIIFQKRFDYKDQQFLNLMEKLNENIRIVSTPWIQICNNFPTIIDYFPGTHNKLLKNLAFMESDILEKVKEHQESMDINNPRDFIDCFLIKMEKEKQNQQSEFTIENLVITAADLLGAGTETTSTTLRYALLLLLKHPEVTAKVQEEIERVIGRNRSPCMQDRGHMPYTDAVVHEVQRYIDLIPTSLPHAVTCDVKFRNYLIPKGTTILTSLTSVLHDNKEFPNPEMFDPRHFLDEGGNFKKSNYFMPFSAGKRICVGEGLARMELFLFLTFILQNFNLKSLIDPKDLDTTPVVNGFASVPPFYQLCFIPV
# [2] = target: T1, Heat shock factor protein 1 (Mus musculus, UniProt P38532); assay: decrease of HSF1-responsive luciferase luminescence – cell-based, NIH3T3, dose retest, confirmation (AID 2382); type: functional;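 note: NIH3T3 fibroblasts with HSF1-driven luciferase reporter stressed by proteasome inhibitor MG132; luminescence from HSF1-driven luciferase expression after 8 hours of MG132 stress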
# T1 sequence (P38532 whole entry): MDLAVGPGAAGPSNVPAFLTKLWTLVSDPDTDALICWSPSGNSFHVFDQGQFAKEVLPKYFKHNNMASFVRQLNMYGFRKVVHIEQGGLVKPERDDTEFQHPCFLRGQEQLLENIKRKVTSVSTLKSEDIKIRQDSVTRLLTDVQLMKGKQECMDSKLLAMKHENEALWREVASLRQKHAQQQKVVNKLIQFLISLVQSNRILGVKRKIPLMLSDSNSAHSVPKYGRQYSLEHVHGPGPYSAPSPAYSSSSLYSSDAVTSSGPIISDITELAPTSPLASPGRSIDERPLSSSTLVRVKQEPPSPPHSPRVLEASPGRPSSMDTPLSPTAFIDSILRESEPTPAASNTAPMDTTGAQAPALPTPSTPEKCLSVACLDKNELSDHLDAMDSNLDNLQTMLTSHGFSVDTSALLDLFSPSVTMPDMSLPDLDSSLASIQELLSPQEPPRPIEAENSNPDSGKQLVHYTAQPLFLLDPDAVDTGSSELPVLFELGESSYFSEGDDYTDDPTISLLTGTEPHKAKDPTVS
# Cytochrome P450 2C9 = Cytochrome P450 2C9 (Homo sapiens, UniProt P11712)
# Chain of Cytochrome P450 2C9 (P11712 whole entry): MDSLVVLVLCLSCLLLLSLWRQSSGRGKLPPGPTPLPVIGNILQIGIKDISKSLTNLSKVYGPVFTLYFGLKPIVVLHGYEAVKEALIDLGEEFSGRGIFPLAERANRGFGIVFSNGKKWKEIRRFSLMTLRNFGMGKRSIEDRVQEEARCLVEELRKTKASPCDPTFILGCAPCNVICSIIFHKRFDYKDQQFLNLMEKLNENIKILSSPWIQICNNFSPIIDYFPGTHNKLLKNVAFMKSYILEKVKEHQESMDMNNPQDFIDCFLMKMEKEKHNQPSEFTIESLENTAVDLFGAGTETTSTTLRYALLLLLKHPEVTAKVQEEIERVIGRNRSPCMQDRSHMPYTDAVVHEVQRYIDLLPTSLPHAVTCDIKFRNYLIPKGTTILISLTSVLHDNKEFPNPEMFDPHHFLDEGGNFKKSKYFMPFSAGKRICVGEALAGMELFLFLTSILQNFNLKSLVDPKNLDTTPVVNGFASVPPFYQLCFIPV
# Cytochrome P450 1A2 = target: T2, Cytochrome P450 1A2 (Homo sapiens, UniProt P05177);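 note: PubChem cytochrome P450 panel assay, CYP1A2 panel member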
# T2 sequence (P05177 whole entry): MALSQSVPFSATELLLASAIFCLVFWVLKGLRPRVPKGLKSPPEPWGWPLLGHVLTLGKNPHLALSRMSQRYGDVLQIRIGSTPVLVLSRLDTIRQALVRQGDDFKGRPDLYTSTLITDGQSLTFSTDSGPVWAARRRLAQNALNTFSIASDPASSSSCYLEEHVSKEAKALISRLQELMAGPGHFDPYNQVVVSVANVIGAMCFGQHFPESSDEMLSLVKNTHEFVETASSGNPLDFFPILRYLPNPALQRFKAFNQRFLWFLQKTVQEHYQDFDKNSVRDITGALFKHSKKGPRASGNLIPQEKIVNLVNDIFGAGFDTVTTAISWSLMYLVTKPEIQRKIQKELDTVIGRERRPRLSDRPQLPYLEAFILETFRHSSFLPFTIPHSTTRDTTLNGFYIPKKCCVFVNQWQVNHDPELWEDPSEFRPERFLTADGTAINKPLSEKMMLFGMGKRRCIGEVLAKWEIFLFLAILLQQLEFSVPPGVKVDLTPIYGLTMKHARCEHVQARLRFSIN
# Cytochrome P450 3A4 = Cytochrome P450 3A4 (Homo sapiens, UniProt P08684);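 note: CYP3A4 tested as one member of a cytochrome P450 panel screen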
# Chain of Cytochrome P450 3A4 (P08684 whole entry): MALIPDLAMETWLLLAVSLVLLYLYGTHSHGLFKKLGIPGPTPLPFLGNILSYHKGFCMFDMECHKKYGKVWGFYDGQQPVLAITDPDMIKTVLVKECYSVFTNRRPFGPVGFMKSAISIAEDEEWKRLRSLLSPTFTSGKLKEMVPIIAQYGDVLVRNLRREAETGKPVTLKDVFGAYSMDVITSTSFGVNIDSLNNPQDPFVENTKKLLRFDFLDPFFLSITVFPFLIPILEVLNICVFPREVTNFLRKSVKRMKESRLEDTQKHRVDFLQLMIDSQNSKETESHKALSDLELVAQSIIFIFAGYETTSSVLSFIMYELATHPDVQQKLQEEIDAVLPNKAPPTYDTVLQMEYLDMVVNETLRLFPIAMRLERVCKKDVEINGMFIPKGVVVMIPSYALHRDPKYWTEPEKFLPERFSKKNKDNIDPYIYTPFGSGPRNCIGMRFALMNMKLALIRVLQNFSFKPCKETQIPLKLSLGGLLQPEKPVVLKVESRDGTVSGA
# [3] = target: T3, Microphthalmia-associated transcription factor (Homo sapiens, UniProt O75030); assay: reducers of TRPM1 reporter luminescence, concentration series – cell-based, SK-MEL-5, cherry-picked, set 3, MITF inhibitor project, dose response (AID 493073); type: functional;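 note: SK-MEL-5 melanoma cells with luciferase driven by the MITF target TRPM1 promoter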
# T3 sequence (O75030 whole entry): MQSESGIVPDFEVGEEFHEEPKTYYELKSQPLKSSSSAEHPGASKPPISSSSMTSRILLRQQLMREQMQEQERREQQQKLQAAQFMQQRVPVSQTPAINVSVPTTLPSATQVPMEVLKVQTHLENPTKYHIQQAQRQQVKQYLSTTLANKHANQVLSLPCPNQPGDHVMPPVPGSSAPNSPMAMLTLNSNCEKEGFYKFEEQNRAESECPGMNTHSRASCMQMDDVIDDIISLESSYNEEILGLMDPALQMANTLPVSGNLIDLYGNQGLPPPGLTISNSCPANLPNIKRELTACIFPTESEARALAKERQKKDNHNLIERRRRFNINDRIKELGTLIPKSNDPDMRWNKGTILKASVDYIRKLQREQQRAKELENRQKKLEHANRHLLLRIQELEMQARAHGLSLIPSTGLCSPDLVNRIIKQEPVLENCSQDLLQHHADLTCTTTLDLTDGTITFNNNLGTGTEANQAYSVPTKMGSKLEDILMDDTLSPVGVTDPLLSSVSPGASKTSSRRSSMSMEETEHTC
# [4] = fluconazole-exposed Candida albicans growth modulators – fluorescence, retest, confirmation (AID 2467); type: functional, cell-based
# [5] = NIH-3T3 fibroblast cytotoxicity, dose response, cytotoxicity control, cell-based, fluorescence, Alamar Blue, secondary assay (AID 2327); type: functional;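 note: NIH-3T3 mouse fibroblasts cultured with fluconazole at 8 µg/mL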
# BJ [6] = assay: growth inhibition of engineered Ras-driven BJ cells – cell-based, alamar blue fluorescence, cherrypicked samples, dose response (AID 2631); type: functional; details: Homo sapiens;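 note: confirmatory dose-response assay in RAS-dependent BJ fibroblasts engineered with TERT, LT and ST, with cytotoxicity read by fluorescence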
# [7] = Luminescence Cell-Based Dose Response HTS to Identify Inhibitors of 5'UTR Stem-Loop Driven Prion Protein mRNA Translation in H4 Neuroglioblastoma Cells. [Related pubchem assays: 1827 (Project Summary), 1813 (Primary HTS)]; type: functional
# P388/ADR = assay: cells; type: functional; details: Mus musculus
# P388 = assay: cells; type: functional; details: Mus musculus
# [8] = luciferase reporter signal suppression in cells – H4 neuroglioma cells, luminescence, dose response (AID 1990); type: functional, cell-based
# [9] = alpha-synuclein stem-loop luciferase translation blockers – H4 neuroglioma cells, luminescence, confirmation (AID 1988); type: functional, cell-based
# SN12K1 = assay: cells; type: functional; details: Homo sapiens
# [10] = target: T4, Carboxy-terminal domain RNA polymerase II polypeptide A small phosphatase 1 (Homo sapiens, UniProt Q9GZU7); assay: CTDSP1 inhibitors, concentration-response, biochemical, absorbance readout, ultra-high-throughput screen actives (AID 540297); type: functional
# T4 sequence (Q9GZU7 whole entry): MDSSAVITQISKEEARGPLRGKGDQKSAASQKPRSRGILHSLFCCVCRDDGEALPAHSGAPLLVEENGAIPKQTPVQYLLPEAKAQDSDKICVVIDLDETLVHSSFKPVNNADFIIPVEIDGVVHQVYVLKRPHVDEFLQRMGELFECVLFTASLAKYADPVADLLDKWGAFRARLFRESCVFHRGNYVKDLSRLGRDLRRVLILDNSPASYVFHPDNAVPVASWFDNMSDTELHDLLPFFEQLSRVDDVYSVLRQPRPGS
# Beta-galactosidase = Beta-galactosidase (Escherichia coli, UniProt Q8VNN2); assay: PubChem AID 485352; type: functional
# Chain of Beta-galactosidase (Q8VNN2 whole entry): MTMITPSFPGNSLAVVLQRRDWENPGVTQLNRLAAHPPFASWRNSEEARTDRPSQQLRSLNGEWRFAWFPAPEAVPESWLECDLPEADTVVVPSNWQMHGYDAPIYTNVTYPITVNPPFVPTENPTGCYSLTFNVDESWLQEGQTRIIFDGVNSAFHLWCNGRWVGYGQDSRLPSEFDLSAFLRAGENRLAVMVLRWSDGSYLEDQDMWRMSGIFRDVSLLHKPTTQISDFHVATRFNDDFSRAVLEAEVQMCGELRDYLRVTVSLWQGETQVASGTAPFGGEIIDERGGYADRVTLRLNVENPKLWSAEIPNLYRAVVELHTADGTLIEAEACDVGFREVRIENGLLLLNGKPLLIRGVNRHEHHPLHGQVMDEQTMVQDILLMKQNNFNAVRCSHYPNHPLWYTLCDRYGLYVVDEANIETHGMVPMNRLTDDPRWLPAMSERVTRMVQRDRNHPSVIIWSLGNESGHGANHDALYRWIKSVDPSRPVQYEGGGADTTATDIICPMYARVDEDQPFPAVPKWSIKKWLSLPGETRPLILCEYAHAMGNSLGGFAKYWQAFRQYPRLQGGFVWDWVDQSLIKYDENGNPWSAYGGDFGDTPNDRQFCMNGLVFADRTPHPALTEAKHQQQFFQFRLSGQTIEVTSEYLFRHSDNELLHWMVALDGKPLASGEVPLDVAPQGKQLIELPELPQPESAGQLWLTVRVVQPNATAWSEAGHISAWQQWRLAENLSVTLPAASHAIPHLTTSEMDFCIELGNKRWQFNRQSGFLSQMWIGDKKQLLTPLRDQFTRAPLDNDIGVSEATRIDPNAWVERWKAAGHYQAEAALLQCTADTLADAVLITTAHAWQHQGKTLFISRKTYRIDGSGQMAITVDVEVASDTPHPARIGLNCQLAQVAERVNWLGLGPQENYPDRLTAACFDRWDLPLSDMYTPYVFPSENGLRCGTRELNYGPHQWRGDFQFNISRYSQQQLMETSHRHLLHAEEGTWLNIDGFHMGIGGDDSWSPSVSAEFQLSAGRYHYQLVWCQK
# [11] = NIH3T3 cell viability loss – ATP luminescence, mouse fibroblasts, counter-screen, dose response (AID 2010); type: functional, cell-based;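 note: cells exposed to compound for about 90 hours before reading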
# [12] = Trypanosoma cruzi growth suppression in host cells – NIH3T3 host cells, beta-gal luminescence, confirmation (AID 2044); type: functional, cell-based;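 note: intracellular parasites grown in NIH/3T3 mouse fibroblasts as host cells; luminescent beta-galactosidase reporter signal from transgenic T. cruzi replicating inside host cells; inhibitors lower the luminescence signal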
# [13] = target: T5, Type-1 angiotensin II receptor (Homo sapiens, UniProt P30556); assay: antagonism of angiotensin II type 1 receptor – cell-based, uHTS hits, selectivity assay for APJ receptor antagonist project, dose response (AID 463214); type: functional;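 note: antagonist potency against angiotensin II stimulated AT1 response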
# T5 sequence (P30556 whole entry): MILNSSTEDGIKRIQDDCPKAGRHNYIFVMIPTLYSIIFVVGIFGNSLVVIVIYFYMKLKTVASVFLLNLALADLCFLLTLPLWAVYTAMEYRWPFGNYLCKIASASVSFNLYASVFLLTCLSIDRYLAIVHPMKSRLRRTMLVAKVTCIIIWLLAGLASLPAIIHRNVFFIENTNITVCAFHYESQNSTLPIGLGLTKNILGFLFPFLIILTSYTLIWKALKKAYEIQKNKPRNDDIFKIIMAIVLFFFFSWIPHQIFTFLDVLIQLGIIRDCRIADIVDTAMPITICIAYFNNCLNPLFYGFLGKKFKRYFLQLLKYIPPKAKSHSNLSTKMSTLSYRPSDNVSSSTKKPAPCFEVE
# [14] = Luminescence Cell-Based Dose Retest to Confirm Inhibitors of Cancer Stem Cells. [Related pubchem assays (depositor defined):AID2717, AID2721]; type: functional; details: Homo sapiens
# BJ [15] = assay: BJ-TERT-LT-ST fibroblast viability loss – cell-based, RAS-independent, luminescence, dose response (AID 1935); type: functional; details: Homo sapiens;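 note: BJ fibroblasts immortalized with TERT plus LT and ST oncogenes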
# [16] = DRD fibroblast viability loss – cell-based, non-viral oncogenic, luminescence, dose response (AID 1934); type: functional; details: Homo sapiens
# BJ [17] = assay: cells; type: functional, cell-based; details: Homo sapiens
# BJ [18] = assay: BJ-TERT fibroblast viability loss – cell-based, RAS-independent, luminescence, dose response (AID 1933); type: functional; details: Homo sapiens
structure (smiles),measurement,setting,value
COc1ccc(S(=O)(=O)Nc2ccc3c(c2)CC(=O)N([C@H](C)CO)C[C@@H](C)[C@@H](CN(C)Cc2ccc(C(=O)Nc4ccccc4N)cc2)O3)cc1,AC50,[1],2.9 µM (active)
C[C@@H]1CCCCO[C@H](CN(C)C(=O)Nc2ccc(C(F)(F)F)cc2)[C@@H](C)CN([C@H](C)CO)C(=O)c2cc(NC(=O)C3CCCCC3)ccc2O1,AC50,[1],1.12 µM (active)
CCOc1c2ccc(C(=O)NCc3ccccc3OC)cc2nn1CC,AC50,Cytochrome P450 2C19,39.8 µM (inconclusive)
same,EC50,[2],> 195 µM (not active)
same,AC50,Cytochrome P450 2C9,inconclusive
same,AC50,Cytochrome P450 1A2,17.8 µM (inconclusive)
same,AC50,Cytochrome P450 3A4,15.8 µM (inconclusive)
CC1CN(/N=C/c2ccc([N+](=O)[O-])o2)C(=N)O1 (stereo not given),AC50,[3],24.1 µM (active)
COc1ccc(S(=O)(=O)N(C)C[C@H]2Oc3ccc(NS(=O)(=O)c4ccc(Cl)cc4)cc3CC(=O)N([C@H](C)CO)C[C@H]2C)cc1,AC50,[1],4.94 µM (active)
Cn1cc(-c2nc3cnc(Oc4cccc(Cl)c4)nc3n(CCC#N)c2=O)c2ccccc21,AC50,Cytochrome P450 2C9,inconclusive
same,AC50,Cytochrome P450 1A2,2.51 µM (inconclusive)
same,AC50,Cytochrome P450 3A4,7.94 µM (inconclusive)
O=C(NNC(=O)c1cc2ccccc2cc1O)NC1CCCCC1,EC50,[4],> 38 µM (not active)
same,EC50,[5],> 150 µM (inactive)
COC(=O)C[C@](O)(CCCC(C)(C)O)C(=O)O[C@@H]1C(OC)=C[C@]23CCCN2CCc2cc4c(cc2[C@H]13)OCO4 [OMACETAXINE MEPESUCCINATE],EC50,BJ [6],0.00488 µM (active)
same,EC50,[7],< 0.1 µM (active)
same,GI50,P388/ADR,0.247 µM (active)
same,GI50,P388,0.00388 µM (active)
same,EC50,[8],< 0.1 µM (active)
same,EC50,[9],< 0.1 µM (active)
same,GI50,SN12K1,0.0115 µM (active)
C[C@H]1CN([C@@H](C)CO)C(=O)Cc2cc(NC(=O)NC3CCCCC3)ccc2O[C@@H]1CN(C)Cc1ccc(Oc2ccccc2)cc1,AC50,[1],6.74 µM (active)
CCOC(=O)/C=C1\CN(C(C)c2ccccc2)S(=O)(=O)c2ccccc21 (stereo not given),IC50,[10],12.3 µM (active)
Cc1c(NC(=S)/C=C2\N(C)c3ccccc3C2(C)C)c(=O)n(-c2ccccc2)n1C,AC50,Cytochrome P450 2C9,inconclusive
N=C1/C(=C/c2cccn2-c2ccc([N+](=O)[O-])cc2)C(=O)N=C2SC=CN12,EC50,[4],1.33 µM (active)
same,EC50,[5],> 160 µM (inactive)
Cc1cccc(C2NC(=O)c3c(sc(C)c3C)N2)c1O (stereo not given),AC50,Cytochrome P450 2C9,inconclusive
C[C@@H]1CN([C@@H](C)CO)C(=O)Cc2cc(NC(=O)Cc3ccccc3)ccc2O[C@@H]1CN(C)Cc1ccc(Oc2ccccc2)cc1,AC50,[1],2.61 µM (active)
Cc1cc(C)c2sc(N(CCCN(C)C)C(=O)c3ccc(S(=O)(=O)N4CCCc5ccccc54)cc3)nc2c1,EC50,Beta-galactosidase,> 40 µM (inactive)
same,EC50,[11],12.2 µM (active)
same,EC50,[12],0.452 µM (active)
same,IC50,[13],> 40 µM (not active)
same,AC50,[14],4.46 µM (active)
COc1ccccc1N1CCN(c2nc3c(C)cccn3c(=O)c2C=O)CC1,AC50,Cytochrome P450 2C19,1.12 µM (inconclusive)
same,AC50,Cytochrome P450 2C9,inconclusive
same,AC50,Cytochrome P450 1A2,12.6 µM (inconclusive)
COc1ccc(S(=O)(=O)Nc2ccc3c(c2)CC(=O)N([C@@H](C)CO)C[C@H](C)[C@H](CN(C)Cc2ccc(C(=O)Nc4ccccc4N)cc2)O3)cc1,AC50,[1],3.23 µM (active)
CCCC(=O)Nc1ccc(C(=O)N/N=C/c2ccc([N+](=O)[O-])o2)cc1,EC50,BJ [6],0.123 µM (active)
same,EC50,BJ [15],0.534 µM (inconclusive)
same,EC50,[16],26.5 µM (active)
same,EC50,BJ [17],0.38 µM (active)
same,EC50,BJ [18],17.2 µM (active)
Cc1onc(C(=O)Nc2sc3c(c2C#N)CCCC3)c1[N+](=O)[O-],EC50,[4],1.59 µM (active)
same,EC50,[5],> 75 µM (inactive)
Cn1c(=O)c(C(=S)NC(=O)C2CC2)c(N)n(Cc2ccccc2)c1=O,EC50,Beta-galactosidase,> 40 µM (inactive)
same,IC50,[13],> 40 µM (not active)
O=C(COC(=O)c1cnccn1)c1cccc([N+](=O)[O-])c1,EC50,Beta-galactosidase,> 40 µM (inactive)
same,IC50,[13],13.6 µM (active)
CN(C)S(=O)(=O)c1cccc(NC(=O)CSc2nc3c(cc2C#N)C(=O)CC(C)(C)C3)c1,AC50,[3],9.02 µM (active)
Cc1c(Cc2ccccc2)c(=O)oc2c(C)c(OCC(=O)NC[C@H]3CC[C@H](C(=O)O)CC3)ccc12,IC50,[10],4.87 µM (active)
COc1cccc2sc(Nc3nc(C)c(C(C)=O)s3)nc12,EC50,Beta-galactosidase,> 40 µM (inactive)
same,EC50,[11],7.09 µM (active)
same,EC50,[12],1.82 µM (active)
same,IC50,[13],23.3 µM (not active)
C[C@@H]1CCCCO[C@@H](CN(C)Cc2ccc(Cl)c(Cl)c2)[C@@H](C)CN([C@H](C)CO)C(=O)c2cc(NC(=O)NC3CCCCC3)ccc2O1,AC50,[1],5.48 µM (active)
